# Measurements: US10023570B2 (Array BioPharma, Inc., priority 2015, dated 2018)
# Structures can show the parent of a compound that is named as a salt. Where two headings read alike, the source gives them in different places.
# Tests used:
# [1] = molecular target: N-terminal GST tagged recombinant human RET cytoplasmic domain (aa 658-end), wild type RET kinase (Homo sapiens (Human), UniProt P07949); assay: RET Enzyme Assay (HTRF KinEASE-TK), wild type RET; format: biochemical; conditions: wild type RET, 1 mM ATP
# N-terminal GST tagged recombinant human RET cytoplasmic domain (aa 658-end), wild type RET kinase, sequence (P07949 658-1114): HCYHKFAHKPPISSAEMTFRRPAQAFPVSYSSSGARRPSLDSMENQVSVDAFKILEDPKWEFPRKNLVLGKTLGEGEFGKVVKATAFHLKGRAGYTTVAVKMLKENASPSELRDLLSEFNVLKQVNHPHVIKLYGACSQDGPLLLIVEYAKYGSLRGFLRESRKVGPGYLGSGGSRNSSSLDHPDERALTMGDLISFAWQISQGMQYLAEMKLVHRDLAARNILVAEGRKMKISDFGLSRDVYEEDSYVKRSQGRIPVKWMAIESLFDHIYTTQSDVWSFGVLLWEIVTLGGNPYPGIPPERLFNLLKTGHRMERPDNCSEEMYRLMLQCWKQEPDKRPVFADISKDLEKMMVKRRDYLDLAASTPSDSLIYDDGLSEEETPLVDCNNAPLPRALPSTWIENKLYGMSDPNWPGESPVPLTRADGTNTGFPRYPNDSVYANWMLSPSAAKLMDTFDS
# [2] = molecular target: Kif5b-RET fusion protein in HEK-293 cells (Homo sapiens, UniProt P07949); assay: cell-based
# Kif5b-RET fusion protein in HEK-293 cells, sequence (P07949 29-1114 limits assumed): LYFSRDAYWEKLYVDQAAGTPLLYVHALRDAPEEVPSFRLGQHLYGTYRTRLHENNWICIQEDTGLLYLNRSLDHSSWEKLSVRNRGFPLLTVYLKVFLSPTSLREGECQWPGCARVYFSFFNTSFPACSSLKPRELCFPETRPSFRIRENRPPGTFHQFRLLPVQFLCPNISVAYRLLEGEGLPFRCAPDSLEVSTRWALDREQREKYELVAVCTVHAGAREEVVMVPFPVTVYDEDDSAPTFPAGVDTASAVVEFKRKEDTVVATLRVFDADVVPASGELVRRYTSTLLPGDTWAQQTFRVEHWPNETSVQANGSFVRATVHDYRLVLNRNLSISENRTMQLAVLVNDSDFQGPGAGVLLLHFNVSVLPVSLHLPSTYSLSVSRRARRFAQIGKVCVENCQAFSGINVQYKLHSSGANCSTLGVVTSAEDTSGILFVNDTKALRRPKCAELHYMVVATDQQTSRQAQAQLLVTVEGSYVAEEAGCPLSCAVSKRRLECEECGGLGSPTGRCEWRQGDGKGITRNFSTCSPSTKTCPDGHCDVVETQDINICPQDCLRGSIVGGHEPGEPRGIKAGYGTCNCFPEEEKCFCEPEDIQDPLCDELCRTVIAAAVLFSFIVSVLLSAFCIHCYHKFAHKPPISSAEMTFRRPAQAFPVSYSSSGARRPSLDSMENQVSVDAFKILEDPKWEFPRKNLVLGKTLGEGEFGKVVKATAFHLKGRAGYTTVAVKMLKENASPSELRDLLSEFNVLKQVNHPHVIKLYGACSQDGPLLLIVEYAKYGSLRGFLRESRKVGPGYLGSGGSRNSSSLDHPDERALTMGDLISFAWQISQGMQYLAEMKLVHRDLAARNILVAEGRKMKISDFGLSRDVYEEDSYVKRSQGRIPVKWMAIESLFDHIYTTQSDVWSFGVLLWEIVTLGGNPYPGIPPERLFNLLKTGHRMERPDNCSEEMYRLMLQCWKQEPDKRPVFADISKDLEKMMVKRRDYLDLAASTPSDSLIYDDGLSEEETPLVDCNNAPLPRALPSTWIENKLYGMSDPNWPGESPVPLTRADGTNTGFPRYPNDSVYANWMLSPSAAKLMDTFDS
# [3] = molecular target: human KDR protein in HEK-293 cells (Homo sapiens (Human), UniProt P35968); assay: KDR Cell Assay (phospho-KDR in HEK-293 cells expressing inducible KDR); format: cell-based; conditions: pKDR Cell HEK 10% FBS IC50, HEK-293 cells expressing inducible KDR, VEGF stimulated
# human KDR protein in HEK-293 cells, sequence (P35968 20-1356): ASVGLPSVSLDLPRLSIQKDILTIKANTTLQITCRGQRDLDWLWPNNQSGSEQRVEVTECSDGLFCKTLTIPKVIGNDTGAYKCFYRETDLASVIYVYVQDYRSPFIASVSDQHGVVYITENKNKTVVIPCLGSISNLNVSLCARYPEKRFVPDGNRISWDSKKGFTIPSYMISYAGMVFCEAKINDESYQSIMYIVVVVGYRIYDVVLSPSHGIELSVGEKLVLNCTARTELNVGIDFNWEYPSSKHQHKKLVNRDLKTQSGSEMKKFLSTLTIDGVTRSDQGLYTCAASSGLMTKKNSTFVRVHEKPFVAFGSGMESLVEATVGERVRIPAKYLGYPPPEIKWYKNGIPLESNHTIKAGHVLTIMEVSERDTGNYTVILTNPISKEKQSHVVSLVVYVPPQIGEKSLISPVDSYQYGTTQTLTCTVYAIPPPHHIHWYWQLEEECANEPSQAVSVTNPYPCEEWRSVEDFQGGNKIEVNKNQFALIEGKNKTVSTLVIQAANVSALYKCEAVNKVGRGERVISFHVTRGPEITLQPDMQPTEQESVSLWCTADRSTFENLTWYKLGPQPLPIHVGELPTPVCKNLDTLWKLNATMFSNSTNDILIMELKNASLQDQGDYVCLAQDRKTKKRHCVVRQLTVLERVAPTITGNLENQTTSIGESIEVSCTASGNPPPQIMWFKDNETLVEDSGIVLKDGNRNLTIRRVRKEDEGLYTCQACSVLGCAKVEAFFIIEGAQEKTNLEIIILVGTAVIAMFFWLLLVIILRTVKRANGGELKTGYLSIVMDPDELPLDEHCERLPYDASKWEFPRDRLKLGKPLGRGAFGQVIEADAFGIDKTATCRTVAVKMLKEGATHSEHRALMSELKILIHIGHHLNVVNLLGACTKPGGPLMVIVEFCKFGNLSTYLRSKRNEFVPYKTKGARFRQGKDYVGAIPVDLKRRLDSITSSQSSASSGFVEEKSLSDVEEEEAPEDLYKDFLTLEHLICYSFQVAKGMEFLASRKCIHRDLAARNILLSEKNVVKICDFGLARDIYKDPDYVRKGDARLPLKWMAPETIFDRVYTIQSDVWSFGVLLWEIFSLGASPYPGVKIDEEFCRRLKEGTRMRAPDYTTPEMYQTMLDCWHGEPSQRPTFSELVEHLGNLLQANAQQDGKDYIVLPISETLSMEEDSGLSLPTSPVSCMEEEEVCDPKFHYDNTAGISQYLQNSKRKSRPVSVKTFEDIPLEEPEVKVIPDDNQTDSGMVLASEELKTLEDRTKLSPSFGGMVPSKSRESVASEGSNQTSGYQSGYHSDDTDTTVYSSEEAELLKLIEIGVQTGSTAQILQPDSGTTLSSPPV
# Outline: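 HEK-293 cells with inducible human KDR were treated with compound for 1 h in DMEM (0.25% DMSO final), then lysed. Phospho-KDR was quantified by Meso Scale immunoassay, expressed as percent of control, and IC50 taken where a 4-parameter logistic fit crossed 50 POC.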
# [4] = HEK-293 cells expressing Kif5b-RET, phospho-RET(Tyr1062), read-out: KIF5B-RET pTYR1062 Cell IC50
# [5] = read-out: KIF5B-RET pTYR1062 Cell IC50
# [6] = HEK-293 cells expressing Kif5b-RET, read-out: KIF5B-RET pTYR1062 Cell IC50
SMILES,IC50 [1] [nM],"IC50 [2, 4] [nM]",IC50 ([3]; 10% FBS) [nM],IC50 [3] [nM],"IC50 [2, 6] [nM]","IC50 [2, 5] [nM]",IC50 [2] [nM]
"COCC(C)(C)C(=O)N1CCN(c2ccc(-c3cc(-c4cnn(C)c4)cn4ncc(C#N)c34)cn2)CC1 [Example 352, 4-(6-(4-(3-methoxy-2,2-dimethylpropanoyl)piperazin-1-yl)pyridin-3-yl)-6-(1-methyl-1H-pyrazol-4-yl)pyrazolo[1,5-a]pyridine-3-carbonitrile]",13.9,13.7,2200,,,,
"Cn1cc(-c2cc(-c3ccc(N4CCN(C(=O)C(C)(C)C)CC4)nc3)c3c(C#N)cnn3c2)cn1 [Example 34, 6-(1-methyl-1H-pyrazol-4-yl)-4-(6-(4-pivaloylpiperazin-1-yl)pyridin-3-yl)pyrazolo[1,5-a]pyridine-3-carbonitrile 2,2,2-trifluoroacetate]",34.8,,3040,,,61.2,
"COc1ccccc1CN1CCN(c2ccc(-c3cc(-c4cnn(C)c4)cn4ncc(C#N)c34)cn2)CC1 [Example 451, 4-(6-(4-(2-methoxybenzyl)piperazin-1-yl)pyridin-3-yl)-6-(1-methyl-1H-pyrazol-4-yl)pyrazolo[1,5-a]pyridine-3-carbonitrile]",4.9,,,593,,,4.9
"CC(C)C(=O)N[C@@H]1CCCN(c2ccc(-c3cc(-c4cnn(C)c4)cn4ncc(C#N)c34)cn2)C1 [Example 226, (R)—N-(1-(5-(3-cyano-6-(1-methyl-1H-pyrazol-4-yl)pyrazolo[1,5-a]pyridin-4-yl)pyridin-2-yl)piperidin-3-yl)isobutyramide]",31.8,57.1,1170,,,,
"Cn1cc(-c2cc(-c3ccc(N4CCN(C(=O)CC(C)(C)O)CC4)nc3)c3c(C#N)cnn3c2)cn1 [Example 79, 4-(6-(4-(3-hydroxy-3-methylbutanoyl)piperazin-1-yl)pyridin-3-yl)-6-(1-methyl-1H-pyrazol-4-yl)pyrazolo[1,5-a]pyridine-3-carbonitrile]",14.5,31.3,1260,,,,
"CC(C)C[C@H](O)C(=O)N1CCN(c2ccc(-c3cc(-c4cnn(C)c4)cn4ncc(C#N)c34)cn2)CC1 [Example 56, (S)-4-(6-(4-(2-hydroxy-4-methylpentanoyl)piperazin-1-yl)pyridin-3-yl)-6-(1-methyl-1H-pyrazol-4-yl)pyrazolo[1,5-a]pyridine-3-carbonitrile]",16,35.5,896,,,,
"Cn1cc(-c2cc(-c3ccc(N4CCC(N)CC4)nc3)c3c(C#N)cnn3c2)cn1 [Example 177, 4-(6-(4-aminopiperidin-1-yl)pyridin-3-yl)-6-(1-methyl-1H-pyrazol-4-yl)pyrazolo[1,5-a]pyridine-3-carbonitrile dihydrochloride]",47,,1180,,,69.9,
"Cc1nn(C(C)C)cc1-c1cc(-c2ccc(N3CCN(Cc4ccccc4)CC3)nc2)c2c(C#N)cnn2c1 [Example 614, 4-(6-(4-benzylpiperazin-1-yl)pyridin-3-yl)-6-(1-isopropyl-3-methyl-1H-pyrazol-4-yl)pyrazolo[1,5-a]pyridine-3-carbonitrile]",22.2,,,2300,,,17
"CC(C)OCCNC(=O)C1CCN(c2ccc(-c3cc(-c4cnn(C)c4)cn4ncc(C#N)c34)cn2)CC1 [Example 234, 1-(5-(3-cyano-6-(1-methyl-1H-pyrazol-4-yl)pyrazolo[1,5-a]pyridin-4-yl)pyridin-2-yl)-N-(2-isopropoxyethyl) piperidine-4-carboxamide]",25.6,31.9,1210,,,,
"Cn1cc(-c2cc(-c3ccc(N4CCNCC4)nc3)c3c(Cl)cnn3c2)cn1 [Example 326, 3-chloro-6-(1-methyl-1H-pyrazol-4-yl)-4-(6-(piperazin-1-yl)pyridine-3-yl)pyrazolo[1,5-a]pyridine dihydrochloride]",75,,579,,,70.4,
"CCC1(C(=O)NC(C)C)CCN(c2ccc(-c3cc(-c4cn(C)nc4C)cn4ncc(C#N)c34)cn2)CC1 [Example 599, 1-(5-(3-cyano-6-(1,3-dimethyl-1H-pyrazol-4-yl)pyrazolo[1,5-a]pyridin-4-yl)pyridin-2-yl)-4-ethyl-N-isopropylpiperidine-4-carboxamide]",27.6,,,4860,16.5,,
"COCC(=O)N1CCN(c2ccc(-c3cc(-c4cnn(C)c4)cn4ncc(C#N)c34)cn2)CC1 [Example 40, 4-(6-(4-(2-methoxyacetyl)piperazin-1-yl)pyridin-3-yl)-6-(1-methyl-1H-pyrazol-4-yl)pyrazolo[1,5-a]pyridine-3-carbonitrile 2,2,2-trifluoroacetate]",13.7,,221,,,11.2,
"Cn1cc(-c2cc(-c3ccc(N4CCC(NC(=O)C(C)(C)O)CC4)nc3)c3c(C#N)cnn3c2)cn1 [Example 179, N-(1-(5-(3-cyano-6-(1-methyl-1H-pyrazol-4-yl)pyrazolo[1,5-a]pyridin-4-yl)pyridin-2-yl)piperidin-4-yl)-2-hydroxy-2-methylpropanamide]",18,30.8,547,,,,
"COCCN(CCOC)C(=O)N1CCN(c2ccc(-c3cc(-c4cnn(C)c4)cn4ncc(C#N)c34)cn2)CC1 [Example 385, 4-(5-(3-cyano-6-(1-methyl-1H-pyrazol-4-yl)pyrazolo[1,5-a]pyridin-4-yl)pyridine-2-yl)-N,N-bis(2-methoxyethyl)piperazine-1-carboxamide]",27.1,,,1970,47.3,,
"Cc1cccc(CN2CCN(c3ccc(-c4cc(-c5cnn(C)c5)cn5ncc(C#N)c45)cn3)CC2)n1 [Example 433, 6-(1-methyl-1H-pyrazol-4-yl)-4-(6-(4-((6-methylpyridin-2-yl)methyl)piperazin-l-yl)pyridine-3-yl)pyrazolo[1,5-a]pyridine-3-carbonitrile]",9.7,,,1080,,,6
"CC(C)CC(=O)N1CCN(c2ccc(-c3cc(-c4cnn(C)c4)cn4ncc(Cl)c34)cn2)CC1 [Example 646, 1-(4-(5-(3-chloro-6-(1-methyl-1H-pyrazol-4-yl)pyrazolo[1,5-a]pyridin-4-yl)pyridin-2-yl)piperazin-1-yl)-3-methylbutan-1-one]",15.6,,,1960,45.7,,

# The remaining compounds from weak to strong by IC50 [1], led by results:
IC50 [1] [nM],"IC50 [2, 4] [nM]",IC50 ([3]; 10% FBS) [nM],IC50 [3] [nM],"IC50 [2, 6] [nM]",SMILES,"IC50 [2, 5] [nM]",IC50 [2] [nM]
13.1,,,877,19.5,"COc1ncc(F)cc1CN1CCN(c2ccc(-c3cc(-c4cnn(C)c4)cn4ncc(C#N)c34)cn2)CC1 [Example 457, 4-(6-(4-((5-fluoro-2-methoxypyridin-3-yl)methyl)piperazin-1-yl)pyridin-3-yl)-6-(1-methyl-1H-pyrazol-4-yl)pyrazolo[1,5-a]pyridine-3-carbonitrile]",,
12.1,24.4,812,,,"COCC(C)NC(=O)C1CCN(c2ccc(-c3cc(-c4cnn(C)c4)cn4ncc(C#N)c34)cn2)CC1 (stereo not drawn) [Example 232, 1-(5-(3-cyano-6-(1-methyl-1H-pyrazol-4-yl)pyrazolo[1,5-a]pyridin-4-yl)pyridin-2-yl)-N-(1-methoxypropan-2-yl)piperidine-4-carboxamide]",,
11,13.6,2760,,,"CC(C)CC(=O)N1CCN(c2ccc(-c3cc(-c4cnn(C(F)F)c4)cn4ncc(C#N)c34)cn2)CC1 [Example 267, 6-(1-(difluoromethyl)-1H-pyrazol-4-yl)-4-(6-(4-(3-methylbutanoyl)piperazin-1-yl)pyridin-3-yl)pyrazolo[1,5-a]pyridine-3-carbonitrile]",,
10.4,54.9,923,,,"C[C@@H](O)CC(=O)N1CCN(c2ccc(-c3cc(-c4cnn(C)c4)cn4ncc(C#N)c34)cn2)CC1 [Example 55, (R)-4-(6-(4-(3-hydroxybutanoyl)piperazin-1-yl)pyridin-3-yl)-6-(1-methyl-1H-pyrazol-4-yl)pyrazolo[1,5-a]pyridine-3-carbonitrile]",,
7.8,5.6,495,,,"CC(C)NC(=O)C1(C)CCN(c2ccc(-c3cc(-c4cnn(C)c4)cn4ncc(C#N)c34)cn2)CC1 [Example 251, 1-(5-(3-cyano-6-(1-methyl-1H-pyrazol-4-yl)pyrazolo[1,5-a]pyridin-4-yl)pyridin-2-yl)-N-isopropyl-4-methylpiperidine-4-carboxamide]",,
7.4,13.2,203,,,"Cn1cc(-c2cc(-c3ccc(N4CCN(C=O)CC4)nc3)c3c(C#N)cnn3c2)cn1 [Example 141, 4-(6-(4-formylpiperazin-1-yl)pyridin-3-yl)-6-(1-methyl-1H-pyrazol-4-yl)pyrazolo[1,5-a]pyridine-3-carbonitrile]",,
5.8,5.2,560,,,CC(C)C(=O)NC1(C)CCN(c2ccc(-c3cc(-c4cnn(C)c4)cn4ncc(C#N)c34)cn2)CC1 [Example 203],,
4.4,9.9,305,,,"CC(C)C[C@@H](O)C(=O)N1CCN(c2ccc(-c3cc(-c4cnn(C)c4)cn4ncc(C#N)c34)cn2)CC1 [Example 53, (R)-4-(6-(4-(2-hydroxy-4-methylpentanoyl)piperazin-1-yl)pyridin-3-yl)-6-(1-methyl-1H-pyrazol-4-yl)pyrazolo[1,5-a]pyridine-3-carbonitrile]",,
